Laboratory results as given in PubChem BioAssay AID2060615 (Molecular Pharmacology Branch, DTP, NCI, 2025).
Values belong to the molecule of their own block, whether it stands above or below them.

Test system: 496974-208-R-J2-PDC complex spheroids, growth % test/control
Assay: Anticancer human tumor 496974-208-R-J2-PDC patient-derived pancreatic carcinoma cell line growth inhibition [CLK]
Conditions: for IC50: curve of first compound; for viability, T/C: stronger effect = lower value
How it was run: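 Multi-cell-type spheroids combined patient-derived tumor cells with HUVEC endothelial cells and human mesenchymal stem cells. Paired agents were dosed in half-log steps down from about clinical Cmax, or from 10 microM where Cmax was unknown.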

[1] = second compound 0.0316 µM, first compound 0.0316 µM
[2] = second compound 0.0316 µM, first compound 0.1 µM
[3] = second compound 0.0316 µM, first compound 0.316 µM
[4] = second compound 0.0316 µM, first compound 1 µM
[5] = second compound 0.0316 µM, first compound 3.16 µM
[6] = second compound 0.0316 µM, first compound 10 µM
[7] = second compound 0.1 µM, first compound 0.0316 µM
[8] = second compound 0.1 µM, first compound 0.1 µM
[9] = second compound 0.1 µM, first compound 0.316 µM
[10] = second compound 0.1 µM, first compound 1 µM
[11] = second compound 0.1 µM, first compound 3.16 µM
[12] = second compound 0.1 µM, first compound 10 µM
[13] = second compound 0.316 µM, first compound 0.0316 µM
[14] = second compound 0.316 µM, first compound 0.1 µM
[15] = second compound 0.316 µM, first compound 0.316 µM
[16] = second compound 0.316 µM, first compound 1 µM
[17] = second compound 0.316 µM, first compound 3.16 µM
[18] = second compound 0.316 µM, first compound 10 µM
[19] = second compound 1 µM, first compound 0.0316 µM
[20] = second compound 1 µM, first compound 0.1 µM
[21] = second compound 1 µM, first compound 0.316 µM
[22] = second compound 1 µM, first compound 1 µM
[23] = second compound 1 µM, first compound 3.16 µM
[24] = second compound 1 µM, first compound 10 µM
[25] = second compound 3.16 µM, first compound 0.0316 µM
[26] = second compound 3.16 µM, first compound 0.1 µM
[27] = second compound 3.16 µM, first compound 0.316 µM
[28] = second compound 3.16 µM, first compound 1 µM
[29] = second compound 3.16 µM, first compound 3.16 µM
[30] = second compound 3.16 µM, first compound 10 µM
[31] = second compound 10 µM, first compound 0.0316 µM
[32] = second compound 10 µM, first compound 0.1 µM
[33] = second compound 10 µM, first compound 0.316 µM
[34] = second compound 10 µM, first compound 1 µM
[35] = second compound 10 µM, first compound 3.16 µM
[36] = second compound 10 µM, first compound 10 µM
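Also: spheroids exposed to the drugs for 7 days before readout.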
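For viability, T/C in this document: 100% = DMSO vehicle control wells.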

IC50 (second compound 0.0316 µM): 7280 nM
IC50 (second compound 0.1 µM): 6160 nM
IC50 (second compound 0.316 µM): 2600 nM
IC50 (second compound 1 µM): 1710 nM
IC50 (second compound 3.16 µM): 1360 nM
IC50 (second compound 10 µM): 306 nM
Compound: COc1ccc([C@@H](O)c2cc(-c3ncnc4cc(N5CCOCC5)ccc34)c(F)cc2Cl)nn1 + CNC(=O)c1ccc(Nc2nc(OC3CCCC3)c3c(-c4ccc5nc(C)oc5c4)c[nH]c3n2)c(OC)c1
viability, T/C [1]: 102%
viability, T/C [2]: 88.6%
viability, T/C [3]: 89.4%
viability, T/C [4]: 88.7%
viability, T/C [5]: 76.1%
viability, T/C [6]: 40.1%
viability, T/C [7]: 78.5%
viability, T/C [8]: 75.8%
viability, T/C [9]: 83.9%
viability, T/C [10]: 75.9%
viability, T/C [11]: 62.3%
viability, T/C [12]: 41.1%
viability, T/C [13]: 71%
viability, T/C [14]: 85.1%
viability, T/C [15]: 68.9%
viability, T/C [16]: 67.1%
viability, T/C [17]: 46.5%
viability, T/C [18]: 20.4%
viability, T/C [19]: 72%
viability, T/C [20]: 64.2%
viability, T/C [21]: 65.1%
viability, T/C [22]: 58.1%
viability, T/C [23]: 41.6%
viability, T/C [24]: 23.2%
viability, T/C [25]: 62.9%
viability, T/C [26]: 68%
viability, T/C [27]: 59.5%
viability, T/C [28]: 56.3%
viability, T/C [29]: 35.6%
viability, T/C [30]: 17.9%
viability, T/C [31]: 59.7%
viability, T/C [32]: 55.8%
viability, T/C [33]: 50.2%
viability, T/C [34]: 42.9%
viability, T/C [35]: 27.3%
viability, T/C [36]: 14.2%

IC50 (second compound 0.0316 µM): 185 nM
IC50 (second compound 0.1 µM): 177 nM
IC50 (second compound 0.316 µM): 191 nM
IC50 (second compound 1 µM): 115 nM
IC50 (second compound 3.16 µM): 103 nM
IC50 (second compound 10 µM): 53.6 nM
Compound: COc1cccc2c1C(=O)c1c(O)c3c(c(O)c1C2=O)CC(O)(C(=O)CO)CC3OC1CC(N)C(O)C(C)O1 (centres undefined) + CNC(=O)c1ccc(Nc2nc(OC3CCCC3)c3c(-c4ccc5nc(C)oc5c4)c[nH]c3n2)c(OC)c1
viability, T/C [1]: 70.4%
viability, T/C [2]: 62.2%
viability, T/C [3]: 38.3%
viability, T/C [4]: 3.78%
viability, T/C [5]: 0.62%
viability, T/C [6]: 0.49%
viability, T/C [7]: 67.5%
viability, T/C [8]: 66.1%
viability, T/C [9]: 33.8%
viability, T/C [10]: 3.28%
viability, T/C [11]: 0.77%
viability, T/C [12]: 2.66%
viability, T/C [13]: 68%
viability, T/C [14]: 68.3%
viability, T/C [15]: 36.2%
viability, T/C [16]: 3.12%
viability, T/C [17]: 0.68%
viability, T/C [18]: 0.3%
viability, T/C [19]: 68%
viability, T/C [20]: 52.9%
viability, T/C [21]: 22.5%
viability, T/C [22]: 1.15%
viability, T/C [23]: 2.86%
viability, T/C [24]: 3.97%
viability, T/C [25]: 57.9%
viability, T/C [26]: 50.7%
viability, T/C [27]: 18.4%
viability, T/C [28]: 1.62%
viability, T/C [29]: 0.55%
viability, T/C [30]: 0.42%
viability, T/C [31]: 57.8%
viability, T/C [32]: 40.5%
viability, T/C [33]: 16.8%
viability, T/C [34]: 1.34%
viability, T/C [35]: 0.84%
viability, T/C [36]: 0.85%
